From ChEMBL document CHEMBL6092206, “Discovery and Characterization of BAY-184: A New Potent and Selective Acylsulfonamide-Benzofuran In Vivo-Active KAT6AB Inhibitor” (J Med Chem, 2024)
pIC50: −log10 of the molar value. The source made the active and inactive calls. The rule behind the calls is not given here.

Experiments:
CAMA-1 = experiment: Antiproliferative activity against human CAMA-1 cells assessed as inhibition of cell growth incubated for 6 days by alamar blue staining based assay relative to control; format: functional; settings: time 6 day
[1] = Metabolic stability in mouse liver microsome assessed as maximum bioavailability of the drug measured for 2 to 60 mins by LC-MS/MS analysis; format: ADME; settings: liver microsomes, time 2-60 min, read-out: Fmax
[2] = AUC in male Wistar rat at 0.5 mg/kg, iv measured upto 24 hrs by LC-MS/S analysis; format: ADME, organism-based; settings: in vivo
[3] = Stability in human plasma assessed as parent compound remaining after 4 hrs; format: ADME, cell-free
[4] = Stability of compound in PBS buffer at pH 7 measured for 24 hrs by HPLC analysis; format: physicochemical; settings: pH 7, 24 h
[5] = Metabolic stability in human hepatocyte assessed as clearance measured for 2 to 90 mins by LC-MS/MS analysis; format: ADME, cell-based; settings: hepatocytes, time 2-90 min
[6] = target: T1, Histone acetyltransferase KAT6A (Homo sapiens, UniProt Q92794); experiment: Inhibition of KAT6A in human ZR-75-1 cells assessed as reduction in H3K23ac level at 1 uM measured after 144 hrs by Western blot analysis; format: cell-based
[7] = AUC in male Wistar rat at 1 mg/kg, po measured upto 24 hrs by LC-MS/S analysis; format: ADME, organism-based; settings: in vivo
[8] = target: T2, Histone acetyltransferase KAT8 (Homo sapiens, UniProt Q9H7Z6); experiment: Inhibition of full length N-terminal GST-tagged human recombinant KAT8 (174 to 449 residues) using H4-derived peptide as substrate incubated for 60 mins in presence of AcCoA by TR-FRET assay; design: species or system Sf9
T2 sequence (Q9H7Z6 whole entry): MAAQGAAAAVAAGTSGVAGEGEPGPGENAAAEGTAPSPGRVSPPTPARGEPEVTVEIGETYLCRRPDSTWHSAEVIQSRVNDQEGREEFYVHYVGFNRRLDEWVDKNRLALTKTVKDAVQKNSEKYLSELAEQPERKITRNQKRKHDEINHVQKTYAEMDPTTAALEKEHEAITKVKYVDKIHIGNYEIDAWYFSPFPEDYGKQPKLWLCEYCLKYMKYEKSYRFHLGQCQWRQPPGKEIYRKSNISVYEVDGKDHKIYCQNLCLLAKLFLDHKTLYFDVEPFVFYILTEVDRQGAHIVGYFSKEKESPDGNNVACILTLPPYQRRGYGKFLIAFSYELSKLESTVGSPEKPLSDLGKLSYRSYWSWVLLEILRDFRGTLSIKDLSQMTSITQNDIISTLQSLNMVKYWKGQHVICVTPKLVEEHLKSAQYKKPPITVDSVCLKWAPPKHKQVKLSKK

[9] = target: Histone acetyltransferase KAT7 (Homo sapiens, UniProt O95251); experiment: Inhibition of full length N-terminal GST-tagged human recombinant KAT7 expressed in Sf9 insect cells using H4-derived peptide as substrate incubated for 30 mins in presence of AcCoA by TR-FRET assay
BT-549 = experiment: Antiproliferative activity against human BT-549 cells assessed as inhibition of cell growth incubated for 6 days by alamar blue staining based assay relative to control; format: functional; settings: time 6 day
[10] = Metabolic stability in dog hepatocyte assessed as maximum bioavailability of the drug measured for 2 to 90 mins by LC-MS/MS analysis; format: ADME, Canis lupus familiaris; settings: hepatocytes, time 2-90 min, read-out: Fmax
[11] = Apparent permeability across apical to basolateral side in human Caco-2 cells at 2 uM pH 7.2 measured for 2 hrs by LC-MS/MS analysis; format: ADME, cell-based; settings: caco-2, pH 7.2, 2 h, 2 µM
LCLC-97TM1 = experiment: Antiproliferative activity against human LCLC-97TM1 cells assessed as inhibition of cell proliferation incubated for 6 days by alamar blue staining based assay; format: functional; settings: time 6.0 day
[12] = Antiproliferative activity against human HCC1500 cells assessed as inhibition of cell growth incubated for 6 days by alamar blue staining based assay relative to control; format: functional; settings: time 6 day
[13] = target: Histone acetyltransferase KAT5 (Homo sapiens, UniProt Q92993); experiment: Inhibition of full length N-terminal GST-tagged human recombinant KAT5 expressed in Sf9 insect cells using H4-derived peptide as substrate incubated for 30 mins in presence of AcCoA by TR-FRET assay
[14] = Metabolic stability in rat hepatocyte assessed as maximum bioavailability of the drug measured for 2 to 90 mins by LC-MS/MS analysis; format: ADME; settings: hepatocytes, time 2-90 min, read-out: Fmax
ZR-75-1 = experiment: Antitumor activity against human ZR-75-1 cells xenografted in po dosed female estradiol-primed NMRI mouse assessed as inhibition of tumor growth administered twice daily measured at 2 to 3 days; format: functional, organism-based; settings: time 2-3 day
[15] = Metabolic stability in rat hepatocyte assessed as clearance measured for 2 to 90 mins by LC-MS/MS analysis; format: ADME, cell-based; settings: hepatocytes, time 2-90 min
[16] = Metabolic stability in mouse liver microsome assessed as clearance measured for 2 to 60 mins by LC-MS/MS analysis; format: ADME; settings: microsomes, time 2-60 min
MDA-MB-436 = experiment: Antiproliferative activity against human MDA-MB-436 cells assessed as inhibition of cell growth incubated for 6 days by alamar blue staining based assay relative to control; format: functional; settings: time 6 day
[17] = Metabolic stability in dog liver microsome assessed as maximum bioavailability of the drug measured for 2 to 60 mins by LC-MS/MS analysis; format: ADME, Canis lupus familiaris; settings: liver microsomes, time 2-60 min, read-out: Fmax
[18] = Stability of compound in HCL buffer at pH 1 measured for 24 hrs by HPLC analysis; format: physicochemical; settings: pH 1, 24 h
[19] = target: T1, Histone acetyltransferase KAT6A; experiment: Inhibition of KAT6A in human ZR-75-1 cells assessed as reduction in H3K23ac level at 1 uM incubated at 10 to 2880 mins by Western blot analysis; format: cell-based; settings: time 10-2880 min
[20] = Stability of compound in borate buffer at pH 10 measured for 24 hrs by HPLC analysis; format: physicochemical; settings: pH 10, 24 h
[21] = Clearance in male Wistar rat at 0.5 mg/kg, iv or 1 mg/kg, po measured upto 24 hrs by LC-MS/S analysis; format: ADME, organism-based; settings: in vivo

T1 sequence (Q92794 whole entry, looked up): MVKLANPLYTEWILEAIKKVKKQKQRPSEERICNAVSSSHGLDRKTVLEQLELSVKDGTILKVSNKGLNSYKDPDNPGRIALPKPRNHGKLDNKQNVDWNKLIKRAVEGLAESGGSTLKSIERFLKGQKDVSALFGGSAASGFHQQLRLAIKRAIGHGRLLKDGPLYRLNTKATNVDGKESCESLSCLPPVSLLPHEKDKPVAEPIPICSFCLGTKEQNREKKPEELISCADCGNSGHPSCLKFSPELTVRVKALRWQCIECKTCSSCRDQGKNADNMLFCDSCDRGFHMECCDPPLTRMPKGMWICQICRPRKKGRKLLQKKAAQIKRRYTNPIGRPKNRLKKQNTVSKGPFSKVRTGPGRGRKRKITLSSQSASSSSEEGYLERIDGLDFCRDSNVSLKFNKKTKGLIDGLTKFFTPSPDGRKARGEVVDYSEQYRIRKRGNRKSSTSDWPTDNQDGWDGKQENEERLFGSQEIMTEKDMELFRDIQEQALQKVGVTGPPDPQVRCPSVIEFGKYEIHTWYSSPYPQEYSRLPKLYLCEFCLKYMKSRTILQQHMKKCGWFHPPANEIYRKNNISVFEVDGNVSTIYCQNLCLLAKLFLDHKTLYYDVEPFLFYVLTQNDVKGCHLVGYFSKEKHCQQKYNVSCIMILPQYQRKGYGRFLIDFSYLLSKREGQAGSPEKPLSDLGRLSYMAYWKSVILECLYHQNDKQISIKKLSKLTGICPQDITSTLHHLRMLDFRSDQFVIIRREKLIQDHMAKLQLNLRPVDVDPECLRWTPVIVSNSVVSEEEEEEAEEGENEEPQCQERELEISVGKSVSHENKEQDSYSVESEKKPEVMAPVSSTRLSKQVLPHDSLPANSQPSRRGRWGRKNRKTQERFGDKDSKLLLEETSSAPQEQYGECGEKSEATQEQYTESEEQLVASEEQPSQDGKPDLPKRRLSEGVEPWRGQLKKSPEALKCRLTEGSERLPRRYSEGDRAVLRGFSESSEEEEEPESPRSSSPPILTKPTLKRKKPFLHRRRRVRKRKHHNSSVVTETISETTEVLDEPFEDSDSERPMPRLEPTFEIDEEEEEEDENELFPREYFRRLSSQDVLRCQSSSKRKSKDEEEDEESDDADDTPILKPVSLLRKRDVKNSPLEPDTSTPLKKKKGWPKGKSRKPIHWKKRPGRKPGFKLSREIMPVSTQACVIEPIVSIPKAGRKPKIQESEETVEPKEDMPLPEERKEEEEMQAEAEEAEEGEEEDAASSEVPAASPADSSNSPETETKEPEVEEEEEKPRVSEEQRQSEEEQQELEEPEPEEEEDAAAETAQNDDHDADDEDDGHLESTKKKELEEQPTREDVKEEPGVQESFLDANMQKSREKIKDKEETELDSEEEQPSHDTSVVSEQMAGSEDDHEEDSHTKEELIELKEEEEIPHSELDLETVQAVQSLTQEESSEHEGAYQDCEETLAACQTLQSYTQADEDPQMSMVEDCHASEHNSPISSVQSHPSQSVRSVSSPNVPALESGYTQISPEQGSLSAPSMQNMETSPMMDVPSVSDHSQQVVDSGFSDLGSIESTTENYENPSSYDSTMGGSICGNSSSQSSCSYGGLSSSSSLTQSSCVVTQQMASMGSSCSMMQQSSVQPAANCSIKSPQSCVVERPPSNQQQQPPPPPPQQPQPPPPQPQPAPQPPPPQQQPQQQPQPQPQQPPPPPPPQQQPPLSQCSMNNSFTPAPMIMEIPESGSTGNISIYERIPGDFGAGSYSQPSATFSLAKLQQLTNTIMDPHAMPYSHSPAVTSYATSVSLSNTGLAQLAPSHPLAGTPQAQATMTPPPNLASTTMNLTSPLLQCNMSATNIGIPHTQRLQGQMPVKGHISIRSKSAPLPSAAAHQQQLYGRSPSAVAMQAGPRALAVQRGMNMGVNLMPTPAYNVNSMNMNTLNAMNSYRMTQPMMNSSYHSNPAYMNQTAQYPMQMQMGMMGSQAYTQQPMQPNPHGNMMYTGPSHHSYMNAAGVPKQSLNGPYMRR
Sequence of Histone acetyltransferase KAT7 (O95251 whole entry): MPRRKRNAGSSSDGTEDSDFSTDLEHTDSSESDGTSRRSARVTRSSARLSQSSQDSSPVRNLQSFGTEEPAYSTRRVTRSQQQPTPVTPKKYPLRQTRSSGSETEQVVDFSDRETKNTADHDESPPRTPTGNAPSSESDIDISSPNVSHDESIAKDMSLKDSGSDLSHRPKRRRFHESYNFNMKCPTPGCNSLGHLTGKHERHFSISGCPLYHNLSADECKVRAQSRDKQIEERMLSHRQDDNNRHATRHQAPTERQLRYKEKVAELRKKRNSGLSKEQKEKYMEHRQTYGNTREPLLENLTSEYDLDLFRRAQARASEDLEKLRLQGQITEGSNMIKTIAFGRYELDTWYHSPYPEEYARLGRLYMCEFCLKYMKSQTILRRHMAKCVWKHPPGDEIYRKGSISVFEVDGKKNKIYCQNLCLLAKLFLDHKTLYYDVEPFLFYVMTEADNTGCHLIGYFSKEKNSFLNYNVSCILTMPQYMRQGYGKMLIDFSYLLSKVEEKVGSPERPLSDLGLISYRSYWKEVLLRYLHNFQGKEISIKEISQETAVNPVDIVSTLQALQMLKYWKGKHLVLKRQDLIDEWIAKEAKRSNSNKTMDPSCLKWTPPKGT
Sequence of Histone acetyltransferase KAT5 (Q92993 whole entry): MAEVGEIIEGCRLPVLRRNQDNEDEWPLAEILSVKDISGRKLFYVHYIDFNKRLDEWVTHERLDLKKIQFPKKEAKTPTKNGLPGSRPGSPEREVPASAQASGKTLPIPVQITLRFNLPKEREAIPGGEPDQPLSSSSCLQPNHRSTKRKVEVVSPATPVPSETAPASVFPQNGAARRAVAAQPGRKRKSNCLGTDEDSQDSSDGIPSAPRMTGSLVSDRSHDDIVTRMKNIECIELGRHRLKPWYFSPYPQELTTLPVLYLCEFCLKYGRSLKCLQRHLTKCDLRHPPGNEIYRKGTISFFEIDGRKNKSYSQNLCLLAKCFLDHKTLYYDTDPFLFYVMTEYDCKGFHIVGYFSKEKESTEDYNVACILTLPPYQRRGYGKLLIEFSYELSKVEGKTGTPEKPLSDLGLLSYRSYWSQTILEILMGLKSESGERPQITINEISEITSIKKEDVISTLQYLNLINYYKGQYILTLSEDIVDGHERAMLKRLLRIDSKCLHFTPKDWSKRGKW

SMILES: CN(C)c1ccc2cc(C(=O)NS(=O)(=O)c3ccccc3-c3ccccc3)oc2c1
- inhibition (INH) (CAMA-1): 68%
- Fh [1]: 29%
- AUC [2]: 5.5 kg·h/L
- Stability [3]: Stable
- Stability [4]: Stable
- CLH [5]: 16.5 mL/min/kg
- inhibition [6]: inactive
- AUC [7]: 3.3 kg·h/L
- pIC50 [8]: < 5.00
- pIC50 [9]: 5.97
- inhibition (INH) (BT-549): 0%
- Fh [10]: 53%
- Papp [11]: 14.6 ×10⁻⁶ cm/s
- Activity (LCLC-97TM1): Active
- inhibition (INH) [12]: 49%
- pIC50 [13]: 4.84
- Fh [14]: 42%
- Activity (ZR-75-1): Dose-dependent-effect
- CLH [15]: 41.7 mL/min/kg
- CLH [16]: 63.3 mL/min/kg
- inhibition (INH) (MDA-MB-436): 0%
- Fh [17]: 80%
- Stability [18]: Stable
- inhibition [19]: Active
- Stability [20]: Stable
- clearance [21]: 5.67 mL/min/kg
